Values quoted from earlier work in US20040147461A1, “Motilide compounds” (priority 2000, published 2004).

Assays:
[1] = statement in words
motilin receptor = motilin receptor (Homo sapiens, UniProt O43193); conditions: statement in words
motilin receptor, sequence (O43193 whole entry, species assumed): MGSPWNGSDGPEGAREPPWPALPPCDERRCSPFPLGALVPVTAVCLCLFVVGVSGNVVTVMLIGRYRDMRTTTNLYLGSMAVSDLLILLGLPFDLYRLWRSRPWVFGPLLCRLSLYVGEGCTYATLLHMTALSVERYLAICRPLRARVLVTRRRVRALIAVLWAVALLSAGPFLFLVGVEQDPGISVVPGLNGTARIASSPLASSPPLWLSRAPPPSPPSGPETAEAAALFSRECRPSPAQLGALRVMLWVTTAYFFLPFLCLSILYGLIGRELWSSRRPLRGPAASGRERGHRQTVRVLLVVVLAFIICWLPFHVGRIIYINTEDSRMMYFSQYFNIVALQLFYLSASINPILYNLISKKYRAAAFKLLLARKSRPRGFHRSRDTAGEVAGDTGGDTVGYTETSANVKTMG

Row | SMILES | antimicrobial activity [1] | motilin agonist activity (motilin receptor)
1 | CC[C@H]1OC(=O)[C@H](C)[C@@H](O[C@H]2C[C@@](C)(OC)[C@@H](O)[C@H](C)O2)[C@H](C)[C@@H](O[C@@H]2O[C@H](C)C[C@H](N(C)C)[C@H]2O)[C@@]2(C)CC(C)=C(O2)[C@H](C)[C@@H](O)[C@]1(C)O [enol ether, 8,9-anhydroerythromycin A 6,9-hemiacetal] | does not also posses antimicrobial activity | 
2 | CC[C@H]1OC(=O)[C@H](C)[C@@H](O[C@H]2C[C@@](C)(OC)[C@@H](O)[C@H](C)O2)[C@H](C)[C@@H](O[C@@H]2O[C@H](C)C[C@H](N(C)C)[C@H]2O)[C@](C)(O)C[C@@H](C)C(=O)[C@H](C)[C@@H](O)[C@]1(C)O [erythromycin A] |  | motilin agonists
